Experimental data reported in US20230346924A1, “MRNA VACCINE COMPRISING ADJUVANT CAPABLE OF KINETIC CONTROL” (PROGENEER INC., priority 2020, published 2023).
“Also recorded” adds a separate entry of the source.

Columns and labels:
[1] = tested on: bone marrow-derived dendritic cells (BMDCs); assay: Degree of antigen presentation in BMDCs treated with mRNA and toll-like receptor agonist (anti-OVA SIINFEKL antibodies); type: cell-based, mouse; details: compared to mRNA only
Protocol: To confirm the efficacy of the composition for an mRNA vaccine of the present invention, an experiment was performed using OVA mRNA which is widely used as an mRNA vaccine. In further detail, first, CleanCap® OVA mRNA (5 moU, L-7210, TriLink Biotechnologies) and Opti-MEM™ (Reduced Serum Medium, ThermoFisher Scientific) were mixed at a volume ratio of 1:49, and Lipofectamine (Lipofectamine™ 2000 Transfection Reagent, ThermoFisher Scientific) and Opti-MEM® were mixed at a volume ratio of 2:23 as a delivery system, and then the above mixtures were mixed again in a volume ratio of 1:1 and reacted for 5 minutes, thereby preparing an mRNA composition. As toll-like receptor agonists, a toll-like receptor 3 agonist, which is polyinosinic-polycytidylic acid (poly I:C, Sigma-Aldrich), a toll-like receptor 4 agonist, which is Lipopolysaccharide (LPS, Sigma-Aldrich), and a toll-like receptor 7 or 8 agonist which is resiquimod (Biorbyt), were used. Poly I:C was used after being dispersed in phosphate buffered saline (PBS) at a concentration of 0.8 mg/mL, LPS was used after being dispersed in PBS at a concentration of 0.3 μg/mL, R848 was first dissolved in dimethyl sulfoxide (DMSO) at a concentration of 20 mg/mL, and then the dissolved solution was dispersed in PBS to a concentration of 20 μg/mL and used. In the case of treatment with a single toll-like receptor agonist, poly I:C was treated at 40 μg/mL. LPS was treated at 30 ng/mL, or R848 was treated at […], and in the case of treatment with a combination of agonists, 2 μg/mL of poly I:C and 1 μg/mL of R848 were treated, or 2 ng/mL of LPS and 1 μg/mL of R848 were treated, and in both cases, mRNA was treated at 1 μg/mL.
To identify the efficacy of the composition for an mRNA vaccine of the present invention, as cells for experiments, bone marrow-derived dendritic cells (BMDCs), plasmacytoid dendritic cells (pDCs), and T cells isolated from the spleen of an ovalbumin-specific TCR-bearing mouse (OT-1 transgenic mouse: OT-1 mouse) were used. BMDCs and pDCs were obtained from the bone marrow of a laboratory mouse, C57BL/6 (female, Orient Bio). In further detail, a 6-weeks-old mouse was euthanized, the femur and tibia were cut, and then a medium was flushed to extract internal materials. In addition, the extracted materials were treated with a red blood cell lysis buffer (BioLegend) to remove red blood cells, and used. For pDCs, 6-weeks-old C57BL/6 was euthanized, the femur and tibia were cut, and then a medium was flushed to extract internal materials. The extracted materials were then treated with a red blood cell lysis buffer (BioLegend) to remove red blood cells, and only pDCs were isolated using a pDC isolation kit (Plasmacytoid Dendritic Cell Isolation Kit, mouse, MACS Miltenyi Biotec) to be used in the experiments. Spleen cells were used by extracting the spleen from an OT-1 laboratory mouse, physically grinding the spleen to prepare single cells, washing the cells with PBS, and removing red blood cells with a red blood cell lysis buffer. The obtained cells were then seeded in a culture plate (Corning petri dish) with a size of 100 mm×25 mm to 2×10^6 cells, and cultured under conditions of 5% CO2 and 37° C. As a culture medium, a complete RPMI 1640 medium(Gibco) to which 20 ng/mL of a granulocyte-macrophage colony-stimulating factor (GM-CSF, Recombinant Mouse GM-CSF Protein, R&D Systems) was added, was used. […]

[2] = tested on: T cells isolated from the spleen of an OT-1 mouse; assay: OT-1 T cell activation in co-culture of treated BMDCs and T cells; type: cell-based; details: BMDC/T cell co-culture
[3] = tested on: bone marrow-derived dendritic cells (BMDCs); assay: Cytokine secretion by BMDCs (ELISA: IL-12p70, IL-10, type 1 IFN); type: cell-based, mouse
Protocol: To confirm the efficacy of the composition for an mRNA vaccine of the present invention, an experiment was performed using OVA mRNA which is widely used as an mRNA vaccine. In further detail, first, CleanCap® OVA mRNA (5 moU, L-7210, TriLink Biotechnologies) and Opti-MEM™ (Reduced Serum Medium, ThermoFisher Scientific) were mixed at a volume ratio of 1:49, and Lipofectamine (Lipofectamine™ 2000 Transfection Reagent, ThermoFisher Scientific) and Opti-MEM® were mixed at a volume ratio of 2:23 as a delivery system, and then the above mixtures were mixed again in a volume ratio of 1:1 and reacted for 5 minutes, thereby preparing an mRNA composition. As toll-like receptor agonists, a toll-like receptor 3 agonist, which is polyinosinic-polycytidylic acid (poly I:C, Sigma-Aldrich), a toll-like receptor 4 agonist, which is Lipopolysaccharide (LPS, Sigma-Aldrich), and a toll-like receptor 7 or 8 agonist which is resiquimod (Biorbyt), were used. […]
To confirm the effect of a composition for an mRNA vaccine including a single toll-like receptor in BMDCs, first, BMDCs were treated with a toll-like receptor agonist and modified-mRNA (5-methoxyuridine modified OVA mRNA, TriLink) in the same manner as in Example 12.1, and an antigen presentation degree, amounts of cell surface molecules and levels of cytokines such as interleukin-12p70 (IL-12p70) and interferon were measured. […]

[4] = agonist and mRNA at the same time (0h)
[5] = agonist four hours after mRNA (4h)
[6] = agonist and mRNA at the same time (0h), compared to mRNA alone

Substance | degree of antigen presentation [1, 4] | degree of antigen presentation ([1]; agonist eight hours after mRNA (8h)) | degree of antigen presentation [1, 5] | amount of IFN-γ+ T cells ([2]; agonist 4h after mRNA) | level of IL-2 ([2]; agonist 4h after mRNA) | level of secreted IFN-γ ([2]; agonist 4h after mRNA) | amount of IFN-γ+ T cells ([2]; agonist 8h after mRNA) | level of IL-2 ([2]; agonist 8h after mRNA) | level of secreted IFN-γ ([2]; agonist 8h after mRNA) | amount of IFN-γ+ T cells [2, 6] | level of IL-2 [2, 6] | level of secreted IFN-γ [2, 6] | secretion of type 1 IFN [3, 4] | secretion of type 1 IFN [3, 5]
Lipopolysaccharide [LPS] | reduced | increased | increased | – | – | – | – | – | – | – | – | – | – | –
polyinosinic-polycytidylic acid [poly I:C] | remarkably reduced | – | significantly increased | markedly increased | highest; also recorded: markedly increased | markedly increased | markedly increased | markedly increased | markedly increased | remarkably reduced | remarkably reduced | remarkably reduced | markedly increased | reduced
